Values after ≈ are worked out from the molar mass of the structure shown. Read-outs that look alike come from different tables or passages of the source.
Assays:
Assay type in all cases: cell-based
[1] = system: Pseudomonas aeruginosa PA14 SCV; experiment: MIC determination, planktonic cells shed from biofilms (MBEC P&G device); conditions: for MIC: Pseudomonas aeruginosa, PA14, SCV, planktonic cells, OD650 after 72 h at 35° C., mean ± SD of four trials, read-out: MIC72 h
Protocol: (§1) Antimicrobial susceptibility testing. Antibiotic, metal and biocide susceptibility tests were performed. Antimicrobials were arranged into arrays in microtitre plates that typically consisted of serial two-fold dilutions along the rows of wells (the challenge plates). The first and last wells of every row were used as sterility and growth controls, respectively. […] Biofilms were rinsed with PBS (to remove loosely adherent planktonic cells) and inserted into the challenge plates. After exposure, biofilms were rinsed once in PBS and inserted into microtitre plates containing […] of recovery medium in each well (LB broth, 5 mM GSH, 5 mM L-cys, 1% v/v tween-20). These biofilms were disrupted into the recovery medium using a sonicator, and the recovered cells were serially diluted and plated for viable cell counting. Spot plates from these experiments were incubated for a minimum of 36 h at 35° C. before enumeration. Minimum inhibitory concentration (MIC) values were determined by reading the optical density at 650 nm (OD650) of challenge plates after 72 h at 35° C. using a THERMOmax microplate reader with SOFTMAX PRO data analysis software (Molecular Devices, Sunnyvale, Calif.).
(§2) For susceptibility testing, growth-curve data were used to calibrate incubation times to produce biofilms of similar cell density. […] In this model system, planktonic cells shed from the surface of biofilms served as the inoculum for MIC determinations.

[2] = system: Pseudomonas aeruginosa PA14 gacS^−; experiment: as above; conditions: for MIC: Pseudomonas aeruginosa, PA14, gacS^−, planktonic cells, OD650 after 72 h at 35° C., mean ± SD of four trials, read-out: MIC72 h
Protocol: as §1, §2

[3] = system: Pseudomonas aeruginosa PA14 gacS^− biofilms; experiment: Biofilm susceptibility testing (viable cell counts, log-killing, MBEC99.9); conditions: for Log-survival / No. of survivors / SCV frequency: LB broth; for Log-survival / No. of survivors / SCV frequency / MBEC99.9: 2 h exposure; for MBEC99.9: gacS^− biofilms, 3 log10 reduction in viable cells
From the text: (§3) Biofilm formation. Biofilms were aerobically cultivated using the MBEC high-throughput (HTP) or Physiology and Genetics (P&G) device (Innovotech, Edmonton, Canada) as described in the manufacturer's instructions and by Ceri et al. (1999). To summarize, the parts of this batch culture apparatus were used in two ways. The top half of the plastic MBEC™-HTP device is a lid with 96 polystyrene pegs that also fits over a standard 96-well microtitre plate. For Biofilm growth, the bottom half was either (1) a corrugated trough that guided 22 mL of inoculum across the pegs when the device was placed on a rocker at 3.5 rocks per min (HTP format), or (2) a microtitre plate with […] of inoculum in each well that was placed on a gyrorotary shaker at 150 r.p.m. (P&G format). For either assay format, the inoculum was prepared to c. 10^7CFU/mL1 of the desired strain and the inoculated device was incubated at 35° C. and 95% relative humidity for the required time. Unless otherwise noted, all experiments utilized the MBEC P&G assay. Pegs from the devices were collected at specific time points for scanning electron microscopy and scanning confocal laser microscopy. Biofilm cell densities were evaluated by breaking pegs from the lid of the MBEC device with sterile pliers, rinsing the peg in PBS, and subsequent viable-cell counting as described above. PBS containing the […] surfactant Tween-20 (1% v/v) was used to assist in recovery of bacteria from the peg surfaces. Pegs were sonicated for 30 min in an Aquasonic model 250HT ultrasonic cleaner (VWR International, Mississauga, Canada). Samples of broth culture were collected at the same time points and viable cell counts were determined in a similar manner.
as §1, §2

[4] = system: Pseudomonas aeruginosa PA14 SCV biofilms; experiment: as above; conditions: for MBEC99.9: SCV biofilms, 2 h exposure, 3 log10 reduction in viable cells
From the text: as §3, §1, §2

[5] = system: Pseudomonas aeruginosa PA14 wild-type biofilms
From the text: as §3, §1, §2

[6] = system: Pseudomonas aeruginosa PA14 wild-type; experiment: microbe, parasite or virus in culture; conditions: for MIC: Pseudomonas aeruginosa, read-out: MIC72 h
Protocol: as §1, §2

[7] = system: Pseudomonas aeruginosa PA14 gacS^− biofilms; experiment: Frequency of SCV cells arising from 24-h biofilms exposed for 18 h; conditions: in words
Protocol: In an alternative set of experiments, the frequency of SCV cells arising from 24-h biofilms of P. aeruginosa PA14 gacS was evaluated. Antibiotics were diluted from stock solutions into LB broth to obtain final concentrations of […]. These were arranged in triplicate in a micro-titre plate. Biofilms were incubated in these low concentrations of antibacterials for 18 h at 35° C. and 95% relative humidity. Goat and human serum were also assayed in this array, and were kind gifts from The Life and Environmental Sciences Animal Care Facility at the University of Calgary, Department of Biological Sciences. After exposure, biofilms were treated in a manner identical to that described above.
Frequency of phenotypic variation. During the course of susceptibility assays, the proportion of SCV cells recovered from biofilms after exposure to Ag^+ or H2O2 was increased relative to the corresponding growth controls. It was queried whether this may be true for other antimicrobial agents or growth conditions. An array of clinically used antibiotics, saline, and goat and human sera were examined for an ability to select for these SCVs from 24-h biofilms of P. aeruginosa PA14 gacS. Biofilms were exposed to these agents for 18 h and each assay was performed in triplicate. Viable cell counts were determined for each exposure condition, and log-survival was determined. The proportion of SCV cells in bacterial populations recovered from these exposure conditions was calculated as the mean of the proportions from each individual trial.

Structure (SMILES): O=C(O)c1cn(C2CC2)c2cc(N3CCNCC3)c(F)cc2c1=O [Ciprofloxacin]
- MIC [1]: 0.8 ± 0.4 µg/mL (≈ 2.41 µM)
- MIC [2]: 0.7 ± 0.3 µg/mL (≈ 2.11 µM)
- Log-survival ([3]; 0.16 μg mL^−1): −2.6 ± 0.8 log10 CFU peg^−1
- No. of survivors ([3]; 0.16 μg mL^−1): 2.4 ± 0.8 log10 CFU peg^−1
- SCV frequency ([3]; 0.16 μg mL^−1): 0%
- MBEC99.9 [3]: 0.12 ± 0.05 µg/mL
- MBEC99.9 [4]: 0.64 ± 0.45 µg/mL
- tolerance of SCV strain biofilms relative to the wild-type strain ([4]; ratio of MBEC99.9 values, SCV vs wild type): approximately four
- MBEC99.9 ([5]; wild type biofilms, 2 h exposure, 3 log10 reduction in viable cells): 0.16 ± 0 µg/mL
- MIC ([6]; PA14, wild type, planktonic cells, OD650 after 72 h at 35° C., mean ± SD of four trials): 0.4 ± 0.2 µg/mL (≈ 1.21 µM)
- differences in planktonic cell susceptibility between the different strains ([6]; wild type vs gacS^− vs SCV, log2 difference or less): no significant differences
- selection for SCVs / increase of the frequency of SCV cells compared with growth controls [7]: in no instances

Structure (SMILES): OO [H2O2, hydrogen peroxide]
- MIC [1]: 1880 µg/mL (≈ 55100 µM)
- planktonic cell susceptibility ([1]; planktonic PA14 SCV, by comparison, in words): highly resistant
- MIC [2]: 45 ± 16 µg/mL (≈ 1320 µM)
- planktonic cell susceptibility ([2]; planktonic PA14 gacS, in words): hypersensitive
- Log-survival ([3]; 30 μg mL^−1): −3.8 ± 1.1 log10 CFU peg^−1
- No. of survivors ([3]; 30 μg mL^−1): 1.2 ± 1.1 log10 CFU peg^−1
- SCV frequency ([3]; 30 μg mL^−1): 8%
- MBEC99.9 [3]: 22 ± 14 ppm
- proportion of SCV cells recovered from biofilms after exposure, relative to growth controls ([3]; susceptibility assays, in words): increased
- MBEC99.9 [4]: 293 ± 203 ppm
- biofilm survival at subMBEC99.9 concentrations relative to the wild-type strain ([4]; in words): increased survival
- MBEC99.9 [5]: 352 ± 135 ppm
- MIC ([6]; PA14, 72 h): 938 µg/mL (≈ 27600 µM)

Reference: patent publication US20080075730A1, “Methods and compositions for treating biofilms” (priority 2003, published 2008)
